{
  "source": "patent US20130109728A1",
  "about": "“BIOCIDE COMPOSITION” (TITAN CHEMICALS LIMITED, priority 2011, published 2013)",
  "origin": "cited, not measured here",
  "key": {"[1]": {"test": "not given", "remark": "listed apart in the source"}},
  "data": [
    {"smiles": "C[N+](C)(C)C.O=c1[nH]sc2ccccc12", "note": "[tetramethylammonium BIT, tetramethylammonium 1,2-benzisothiazolin-3-one]", "values": [
      {"measurement": "minimum freezing point of water solution", "setting": "59 wt % tetramethylammonium BIT (40 wt % calculated as BIT), after storage for 24 hours and seeding with solid tetramethylammonium BIT, reported in WO 02 14 293", "result": 3, "unit": "°C"}
    ]},
    {"smiles": "Cn1sccc1=O", "note": "[MIT, 2-methylisothiazolin-3-one]", "values": [
      {"measurement": "freezing point of solutions in water", "setting": "solutions of MIT in water", "result": "about 0 °C"}
    ]},
    {"smiles": "O=c1[nH]sc2ccccc12", "note": "[BIT, 1,2-benzisothiazolin-3-one]", "values": [
      {"measurement": "water solubility", "setting": "[1]", "result": "not very water soluble"}
    ]}
  ]
}
